Experimental data taken from patent US9161922B2, “Amine oxidase inhibitors” (Case Western Reserve University, priority 2005, dated 2015).
Where two headings read alike, the source gives them in different places.

Legend:
Format in all cases: biochemical
[1] = target: arthrobacter globiformis amine oxidase (AGAO) (Arthrobacter globiformis, UniProt P46881); experiment: Arthrobacter globiformis amine oxidase inhibition
Description: (§1) In the following Examples, 0.9 mL aliquots of a solution of candidate inhibitor in 100 mM potassium phosphate buffer, pH 7.2 was mixed bovine plasma amine oxidase (0.1 mL, about […]) and incubated at 30° C. aerobically. Aliquots (0.1 mL) were periodically withdrawn using disposable calibrated Drummond micropipettes and diluted with 1.0 mL of benzylamine (5 mM in 50 mM sodium phosphate buffer, pH 7.2) in a 1 cm quartz cuvette (1.5 mL volume). The rate of oxidation of benzylamine to benzaldehyde was measured by recording the increase in absorbance at 250 nm for 1 minute and compared to the rate of benzylamine oxidation in a companion control solution of enzyme without inhibitor. The concentration of active BPAO was estimated from the rate of benzylamine oxidation. Inhibitory potency values (IC50 values) and partition values for inactivation of BPAO were measured at various times as in indicated in the Tables. IC50 values for lysyl oxidase (LO), arthrobacter globoformis amine oxidase (AGAO) and pichia pastoris lysyl oxidase (PPLO) were also measured in a similar manner.

[2] = target: pichia pastoris lysyl oxidase (PPLO) (Komagataella pastoris (Yeast) (Pichia pastoris), UniProt Q96X16); experiment: Pichia pastoris lysyl oxidase inhibition; details: 30 min
Description: as §1

[3] = target: bovine plasma amine oxidase (BPAO) (Bos taurus (Bovine), UniProt Q29437); experiment: Inactivation of bovine plasma amine oxidase (benzylamine oxidation rate, absorbance at 250 nm)
Description: The rate of oxidation of benzylamine to benzaldehyde was measured by recording the increase in absorbance at 250 nm for 1 minute and compared to the rate of benzylamine oxidation in a companion control solution of enzyme without inhibitor. The concentration of active BPAO was estimated from the rate of benzylamine oxidation. Inhibitory potency values (IC50 values) and partition values for inactivation of BPAO were measured at various times as in indicated in the Tables. IC50 values for lysyl oxidase (LO), arthrobacter globoformis amine oxidase (AGAO) and pichia pastoris lysyl oxidase (PPLO) were also measured in a similar manner.

lysyl oxidase (LO) = lysyl oxidase (LO) (Homo sapiens (Human), UniProt P28300); experiment: Lysyl oxidase inhibition; details: for IC75: 20 min, assay performed at Boston University; for IC50 (BPAO)/IC75(LO): ratio BPAO over LO
Description: as §1

Sequence of lysyl oxidase (LO) (P28300 169-417, species assumed): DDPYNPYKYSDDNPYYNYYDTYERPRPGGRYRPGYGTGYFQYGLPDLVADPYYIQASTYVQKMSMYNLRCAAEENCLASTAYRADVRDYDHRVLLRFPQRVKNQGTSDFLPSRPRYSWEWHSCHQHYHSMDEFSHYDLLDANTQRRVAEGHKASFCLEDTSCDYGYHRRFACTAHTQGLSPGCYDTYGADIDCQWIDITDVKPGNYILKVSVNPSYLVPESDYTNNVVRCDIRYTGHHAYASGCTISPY
Sequence of bovine plasma amine oxidase (BPAO) (Q29437 17-762): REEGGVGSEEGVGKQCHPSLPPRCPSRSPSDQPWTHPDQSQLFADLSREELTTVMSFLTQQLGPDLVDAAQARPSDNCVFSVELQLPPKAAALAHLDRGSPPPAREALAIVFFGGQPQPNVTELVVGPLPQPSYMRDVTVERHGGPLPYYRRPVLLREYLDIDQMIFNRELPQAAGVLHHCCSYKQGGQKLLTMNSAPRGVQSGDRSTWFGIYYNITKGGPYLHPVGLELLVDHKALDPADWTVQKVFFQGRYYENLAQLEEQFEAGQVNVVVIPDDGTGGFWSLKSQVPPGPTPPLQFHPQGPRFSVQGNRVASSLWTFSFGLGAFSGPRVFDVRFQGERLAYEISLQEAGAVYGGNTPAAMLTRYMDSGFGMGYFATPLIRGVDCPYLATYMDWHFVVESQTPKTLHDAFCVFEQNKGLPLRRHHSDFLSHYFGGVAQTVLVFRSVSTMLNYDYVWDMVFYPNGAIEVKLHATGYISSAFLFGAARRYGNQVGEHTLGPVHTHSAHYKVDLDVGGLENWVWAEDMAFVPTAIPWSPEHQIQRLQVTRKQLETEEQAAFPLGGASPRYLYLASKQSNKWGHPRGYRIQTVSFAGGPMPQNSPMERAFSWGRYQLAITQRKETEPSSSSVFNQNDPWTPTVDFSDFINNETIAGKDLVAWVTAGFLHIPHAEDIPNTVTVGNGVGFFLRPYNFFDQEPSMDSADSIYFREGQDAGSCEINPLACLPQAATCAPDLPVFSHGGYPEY
Sequence of pichia pastoris lysyl oxidase (PPLO) (Q96X16 entry or part of it): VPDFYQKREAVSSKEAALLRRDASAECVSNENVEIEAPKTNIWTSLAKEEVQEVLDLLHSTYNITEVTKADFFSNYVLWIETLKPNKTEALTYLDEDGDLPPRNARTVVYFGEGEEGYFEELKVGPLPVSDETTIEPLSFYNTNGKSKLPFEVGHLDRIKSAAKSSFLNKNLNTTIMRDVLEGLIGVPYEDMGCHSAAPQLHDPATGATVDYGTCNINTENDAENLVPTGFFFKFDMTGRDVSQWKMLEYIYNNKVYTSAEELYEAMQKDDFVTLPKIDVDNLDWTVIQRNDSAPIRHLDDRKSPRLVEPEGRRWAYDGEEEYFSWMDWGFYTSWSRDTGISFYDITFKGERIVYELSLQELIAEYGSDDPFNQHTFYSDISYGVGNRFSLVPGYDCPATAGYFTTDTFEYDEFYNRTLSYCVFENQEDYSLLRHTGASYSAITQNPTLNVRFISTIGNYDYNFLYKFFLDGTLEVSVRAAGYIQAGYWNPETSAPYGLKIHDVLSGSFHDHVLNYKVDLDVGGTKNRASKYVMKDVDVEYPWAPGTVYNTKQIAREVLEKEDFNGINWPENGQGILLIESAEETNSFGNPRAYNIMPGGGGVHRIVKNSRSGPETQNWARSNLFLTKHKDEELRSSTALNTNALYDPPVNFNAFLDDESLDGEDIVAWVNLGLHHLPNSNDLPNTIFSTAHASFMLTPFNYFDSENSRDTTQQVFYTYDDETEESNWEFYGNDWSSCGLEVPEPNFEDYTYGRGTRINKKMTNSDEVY

Row | Structure (SMILES) | IC50 ([1]; determined on the basis of reversible competitive inhibition, read-out: IC50 (30 min) AGAO) | IC50 [2] | IC50 [3] | IC75 (lysyl oxidase (LO)) | IC50 (BPAO)/IC75(LO) (lysyl oxidase (LO)) | IC50 ([1]; 30 min)
1 | CCN(CC)C(=O)C(N)CC#CCN (stereo not shown) [R = NEt2] | 7 µM | 5000 µM | 10000 µM | 250 µM | 40 | 
2 | NCC#CCC(N)C(=O)NCCc1ccccc1 (stereo not shown) [R = NHCH2CH2Ph] |  |  | 1800 µM | 450 µM | 1.11 | 250 µM
3 | CCOC(=O)CNC(=O)CNC(=O)C(N)CC#CCN (stereo not shown) [R = NHCH2CONHCH2COOEt] |  |  | 90 µM | 650 µM | 0.14 | 3500 µM
